Laboratory results published in patent US20080038245A1, “Methods of modulating angiogenesis” (priority 2001, published 2008).

Key:
BREC [1] = assay: Cell migration assay (modified Boyden chamber); type: cell-based, bovine; settings: VEGF 0.6 nM
Experimental: Primary cultures of bovine retinal endothelial cells (BREC) were isolated and cultured as described (17). […] A modified Boyden chamber migration assay was performed by using BREC (25). The top and bottom surface of the chamber membrane was coated with collagen I. […] Cells that migrated to the bottom of the chamber were enumerated by counting SYTOX green (Molecular Probes) nucleic acid-stained cells.

BREC [2] = settings: VEGF 0.6 nM, sentence cites ref. (2); cited from earlier work
BREC [3] = assay: Cell growth assay (DNA content, VEGF-induced proliferation); type: cell-based, bovine; settings: VEGF 0.6 nM, after 4 days
Experimental: Primary cultures of bovine retinal endothelial cells (BREC) were isolated and cultured as described (17). Only cells from passages 2-7 were used for the experiments.
BREC were plated onto 12-well culture plates and incubated overnight in DMEM containing 10% calf serum, after which the cells were infected with adenovirus (23). After incubation for 4 days at 37° C. with or without VEGF (0.6 nM), the cells were lysed in 0.1% SDS, and the DNA content was measured by means of Hoechst-33258 dye and a fluorometer (model TKO-100, Hoefer). E2 promoter binding factor (E2F) decoys were used as described (24).

PKCβ2 and Rb = assay: Association of PKCβ2 with Rb in BREC (immunoprecipitation / immunoblot); type: cell-based, bovine
E2F = E2F luciferase assay in BREC; type: cell-based, bovine
Experimental: Luciferase reporter constructs (Mercury Cell Cycle Profiling System, CLONTECH) were introduced into cells with LipofectAMINE reagent (Life Technologies, Rockville, Md.) as instructed by the manufacturer. Luciferase activity was measured by using the Dual-Luciferase Reporter Assay system (Promega).

Rb = Rb phosphorylation in BREC (phospho-specific antibodies); type: cell-based, bovine; settings: time-dependent, all sites (S249/T242, S780, S795, S807/S811, S821)

In the case of CN(C)CCCn1cc(C2=C(c3c[nH]c4ccccc34)C(=O)NC2=O)c2ccccc21 [GFX], the “effect on VEGF-increased BREC migration” value (BREC [1]) is given as “inhibited” and the “effect on VEGF's mitogenic activity” value (BREC [2]) is given as “blocked VEGF's mitogenic activity completely”.
For COc1cccc(-c2cc(=O)c3ccccc3o2)c1N [PD98059], the “effect on VEGF-increased BREC migration” value (BREC [1]) is listed as “inhibited” and the “effect on VEGF's mitogenic activity” value (BREC [2]) is listed as “blocked VEGF's mitogenic activity completely”.
With COC[C@H]1OC(=O)c2coc3c2[C@@]1(C)C1=C(C3=O)[C@@H]2CCC(=O)[C@@]2(C)C[C@H]1OC(C)=O [wortmannin] the “inhibition of VEGF-induced BREC migration” value (BREC [1]) was 41%.
For VEGF, the “increase of migration of BREC” value (BREC [1]) was 2 fold, the “increase in BREC total DNA content” value (BREC [3]) was 2 fold and the “increase of phosphorylated Rb levels (pS780) in PKCβ2-Rb complex” value (PKCβ2 and Rb; VEGF 0.6 nM, overexpression of PKCβ2) was 2- to 3 fold. The “increase of amount of PKCβ2-associated Rb protein” value (PKCβ2 and Rb; VEGF 0.6 nM, immunoprecipitation with antibodies to Rb, immunoblot PKCβ2) was 1.7 fold, the “increase of association of PKCβ2 with Rb” value (PKCβ2 and Rb; immunoprecipitation with anti-PKCβ2 antibody, Rb immunoblot) was 2.2 fold and the “increase of E2F activity” value (E2F) was 8.6 fold. For the same molecule, the “increase of phosphorylation of Rb” value (Rb) was “up to 3 fold”.
